# In ChEMBL document CHEMBL1201862, “PubChem BioAssay data set” (2004):
# Activity calls are given as the source filed them.
# Key:
# [1] = target: Cytochrome P450 2C9 (Homo sapiens, UniProt P11712); conditions: Potency
# [2] = target: Glyceraldehyde-3-phosphate dehydrogenase (Homo sapiens, UniProt P04406)
# [3] = target: T1, Alkaline phosphatase, tissue-nonspecific isozyme (Homo sapiens, UniProt P05186); experiment: human TNAP enzyme inhibitors, SAR follow-up, biochemical, luminescent, dose response (AID 1056)
# T1 sequence (P05186 whole entry): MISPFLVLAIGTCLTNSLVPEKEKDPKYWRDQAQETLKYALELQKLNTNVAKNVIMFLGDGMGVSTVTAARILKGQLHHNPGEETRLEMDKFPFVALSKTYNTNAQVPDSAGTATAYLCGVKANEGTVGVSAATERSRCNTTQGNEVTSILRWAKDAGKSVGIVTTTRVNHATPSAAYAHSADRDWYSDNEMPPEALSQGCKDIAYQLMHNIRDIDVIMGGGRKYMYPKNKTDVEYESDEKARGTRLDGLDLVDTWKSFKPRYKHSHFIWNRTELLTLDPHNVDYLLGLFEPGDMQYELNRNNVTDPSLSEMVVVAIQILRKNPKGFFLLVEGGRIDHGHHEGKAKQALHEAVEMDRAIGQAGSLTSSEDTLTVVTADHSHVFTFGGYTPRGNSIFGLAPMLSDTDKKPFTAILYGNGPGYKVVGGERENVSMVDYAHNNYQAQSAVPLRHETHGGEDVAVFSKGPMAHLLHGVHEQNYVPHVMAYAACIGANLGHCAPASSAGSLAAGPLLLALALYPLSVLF
# [4] = target: Beta-galactosidase (Escherichia coli, UniProt Q8VNN2); experiment: beta-galactosidase enzyme inhibitors and activators, dose response, artefact control for CCR6 antagonist project, biochemical, E. coli enzyme, set 3 (AID 504712); format: functional
# Beta-galactosidase, sequence (Q8VNN2 whole entry): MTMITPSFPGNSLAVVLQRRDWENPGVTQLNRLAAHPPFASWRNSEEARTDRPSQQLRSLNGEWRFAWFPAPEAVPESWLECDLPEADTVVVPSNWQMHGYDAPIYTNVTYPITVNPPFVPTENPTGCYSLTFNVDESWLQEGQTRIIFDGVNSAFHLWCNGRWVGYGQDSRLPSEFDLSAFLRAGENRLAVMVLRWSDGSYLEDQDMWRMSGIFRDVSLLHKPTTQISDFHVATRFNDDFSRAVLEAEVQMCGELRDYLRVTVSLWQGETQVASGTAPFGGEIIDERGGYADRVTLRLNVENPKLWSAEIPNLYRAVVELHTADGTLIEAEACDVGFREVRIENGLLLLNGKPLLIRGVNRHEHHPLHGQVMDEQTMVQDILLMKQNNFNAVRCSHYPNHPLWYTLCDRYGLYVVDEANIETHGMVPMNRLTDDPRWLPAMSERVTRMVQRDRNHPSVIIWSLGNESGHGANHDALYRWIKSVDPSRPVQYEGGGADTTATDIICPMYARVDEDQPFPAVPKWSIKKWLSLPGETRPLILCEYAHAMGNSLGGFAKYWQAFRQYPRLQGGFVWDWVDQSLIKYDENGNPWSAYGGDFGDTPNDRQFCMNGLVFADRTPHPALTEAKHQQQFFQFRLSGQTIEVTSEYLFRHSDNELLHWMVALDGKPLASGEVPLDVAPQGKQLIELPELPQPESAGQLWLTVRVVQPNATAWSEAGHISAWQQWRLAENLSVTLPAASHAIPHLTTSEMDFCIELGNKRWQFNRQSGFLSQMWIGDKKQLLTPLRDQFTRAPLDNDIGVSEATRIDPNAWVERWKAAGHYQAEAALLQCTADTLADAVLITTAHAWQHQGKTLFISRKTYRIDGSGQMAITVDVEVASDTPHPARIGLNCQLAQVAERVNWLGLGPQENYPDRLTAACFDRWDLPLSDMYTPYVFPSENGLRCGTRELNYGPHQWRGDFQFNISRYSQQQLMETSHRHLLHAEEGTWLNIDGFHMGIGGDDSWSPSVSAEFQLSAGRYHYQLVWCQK
# [5] = target: T2, Polyadenylate-binding protein 1 (Homo sapiens, UniProt P11940); experiment: PABP1 MLLE–PAM2 interaction inhibitors, dose response, miRNA deadenylation inhibitor project, biochemical, fluorescence polarization, Cy5-PAM2 peptide, secondary (AID 602260); format: functional; conditions: read-out: IC50_Mean
# [6] = target: T2, Polyadenylate-binding protein 1; experiment: PABP1 MLLE–PAM2 binding inhibitor potency, dose response, biochemical, fluorescence polarization, FITC-PAM2 peptide (AID 602259); format: functional; conditions: read-out: IC50_Mean
# [7] = HEp-2 cell cytotoxicity, dose response, cytotoxicity control for RSV inhibitor project, HTS (AID 2410); format: functional; conditions: human respiratory syncytial virus
# [8] = cells
# [9] = target: T3, Estrogen receptor (Homo sapiens, UniProt P03372);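 also: potency for inhibiting coactivator peptide recruitment to the receptor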
# T3 sequence (P03372 whole entry): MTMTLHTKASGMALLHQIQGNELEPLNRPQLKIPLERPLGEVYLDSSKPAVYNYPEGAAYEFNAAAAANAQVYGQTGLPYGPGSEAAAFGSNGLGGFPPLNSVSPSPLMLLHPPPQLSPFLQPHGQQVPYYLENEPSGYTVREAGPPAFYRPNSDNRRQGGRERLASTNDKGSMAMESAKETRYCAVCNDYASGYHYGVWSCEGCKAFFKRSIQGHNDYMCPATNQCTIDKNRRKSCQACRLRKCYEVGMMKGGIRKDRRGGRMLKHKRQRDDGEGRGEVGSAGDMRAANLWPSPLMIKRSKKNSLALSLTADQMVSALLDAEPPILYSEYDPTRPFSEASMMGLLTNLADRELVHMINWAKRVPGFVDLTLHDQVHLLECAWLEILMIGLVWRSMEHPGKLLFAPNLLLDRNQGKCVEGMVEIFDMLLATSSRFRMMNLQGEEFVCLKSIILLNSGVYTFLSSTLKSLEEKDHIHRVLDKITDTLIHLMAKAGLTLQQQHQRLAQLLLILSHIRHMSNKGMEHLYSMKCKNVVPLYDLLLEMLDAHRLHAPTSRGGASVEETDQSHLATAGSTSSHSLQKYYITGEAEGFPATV
# [10] = target: T4, Bcl-2-related protein A1 (Mus musculus, UniProt Q07440); format: functional;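 also: confirmatory dose–response counterscreen on Bfl-1, used to check hits from a UBC13 polyubiquitin inhibitor campaign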
# T4 sequence (Q07440 whole entry): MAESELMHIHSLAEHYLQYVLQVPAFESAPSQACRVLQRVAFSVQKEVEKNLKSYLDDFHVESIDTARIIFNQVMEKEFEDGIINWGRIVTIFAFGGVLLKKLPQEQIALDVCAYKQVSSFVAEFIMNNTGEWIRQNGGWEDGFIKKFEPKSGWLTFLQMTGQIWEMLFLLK
# [11] = target: T5, Ubiquitin-conjugating enzyme E2 N (Homo sapiens, UniProt P61088); format: functional
# T5 sequence (P61088 whole entry): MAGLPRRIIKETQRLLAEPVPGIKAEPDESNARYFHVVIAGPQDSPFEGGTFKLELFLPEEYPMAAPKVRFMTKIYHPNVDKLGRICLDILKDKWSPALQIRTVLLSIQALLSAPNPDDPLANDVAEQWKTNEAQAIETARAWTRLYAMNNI
# [12] = target: T5, Ubiquitin-conjugating enzyme E2 N; format: functional; remark: listed apart in the source
# [13] = target: T6, Voltage-gated N-type calcium channel alpha-1B subunit/Amyloid beta A4 precursor protein-binding family A member 1 (Homo sapiens, UniProt Q00975+Q02410); format: protein assay
# T6 sequence (Q00975 whole entry): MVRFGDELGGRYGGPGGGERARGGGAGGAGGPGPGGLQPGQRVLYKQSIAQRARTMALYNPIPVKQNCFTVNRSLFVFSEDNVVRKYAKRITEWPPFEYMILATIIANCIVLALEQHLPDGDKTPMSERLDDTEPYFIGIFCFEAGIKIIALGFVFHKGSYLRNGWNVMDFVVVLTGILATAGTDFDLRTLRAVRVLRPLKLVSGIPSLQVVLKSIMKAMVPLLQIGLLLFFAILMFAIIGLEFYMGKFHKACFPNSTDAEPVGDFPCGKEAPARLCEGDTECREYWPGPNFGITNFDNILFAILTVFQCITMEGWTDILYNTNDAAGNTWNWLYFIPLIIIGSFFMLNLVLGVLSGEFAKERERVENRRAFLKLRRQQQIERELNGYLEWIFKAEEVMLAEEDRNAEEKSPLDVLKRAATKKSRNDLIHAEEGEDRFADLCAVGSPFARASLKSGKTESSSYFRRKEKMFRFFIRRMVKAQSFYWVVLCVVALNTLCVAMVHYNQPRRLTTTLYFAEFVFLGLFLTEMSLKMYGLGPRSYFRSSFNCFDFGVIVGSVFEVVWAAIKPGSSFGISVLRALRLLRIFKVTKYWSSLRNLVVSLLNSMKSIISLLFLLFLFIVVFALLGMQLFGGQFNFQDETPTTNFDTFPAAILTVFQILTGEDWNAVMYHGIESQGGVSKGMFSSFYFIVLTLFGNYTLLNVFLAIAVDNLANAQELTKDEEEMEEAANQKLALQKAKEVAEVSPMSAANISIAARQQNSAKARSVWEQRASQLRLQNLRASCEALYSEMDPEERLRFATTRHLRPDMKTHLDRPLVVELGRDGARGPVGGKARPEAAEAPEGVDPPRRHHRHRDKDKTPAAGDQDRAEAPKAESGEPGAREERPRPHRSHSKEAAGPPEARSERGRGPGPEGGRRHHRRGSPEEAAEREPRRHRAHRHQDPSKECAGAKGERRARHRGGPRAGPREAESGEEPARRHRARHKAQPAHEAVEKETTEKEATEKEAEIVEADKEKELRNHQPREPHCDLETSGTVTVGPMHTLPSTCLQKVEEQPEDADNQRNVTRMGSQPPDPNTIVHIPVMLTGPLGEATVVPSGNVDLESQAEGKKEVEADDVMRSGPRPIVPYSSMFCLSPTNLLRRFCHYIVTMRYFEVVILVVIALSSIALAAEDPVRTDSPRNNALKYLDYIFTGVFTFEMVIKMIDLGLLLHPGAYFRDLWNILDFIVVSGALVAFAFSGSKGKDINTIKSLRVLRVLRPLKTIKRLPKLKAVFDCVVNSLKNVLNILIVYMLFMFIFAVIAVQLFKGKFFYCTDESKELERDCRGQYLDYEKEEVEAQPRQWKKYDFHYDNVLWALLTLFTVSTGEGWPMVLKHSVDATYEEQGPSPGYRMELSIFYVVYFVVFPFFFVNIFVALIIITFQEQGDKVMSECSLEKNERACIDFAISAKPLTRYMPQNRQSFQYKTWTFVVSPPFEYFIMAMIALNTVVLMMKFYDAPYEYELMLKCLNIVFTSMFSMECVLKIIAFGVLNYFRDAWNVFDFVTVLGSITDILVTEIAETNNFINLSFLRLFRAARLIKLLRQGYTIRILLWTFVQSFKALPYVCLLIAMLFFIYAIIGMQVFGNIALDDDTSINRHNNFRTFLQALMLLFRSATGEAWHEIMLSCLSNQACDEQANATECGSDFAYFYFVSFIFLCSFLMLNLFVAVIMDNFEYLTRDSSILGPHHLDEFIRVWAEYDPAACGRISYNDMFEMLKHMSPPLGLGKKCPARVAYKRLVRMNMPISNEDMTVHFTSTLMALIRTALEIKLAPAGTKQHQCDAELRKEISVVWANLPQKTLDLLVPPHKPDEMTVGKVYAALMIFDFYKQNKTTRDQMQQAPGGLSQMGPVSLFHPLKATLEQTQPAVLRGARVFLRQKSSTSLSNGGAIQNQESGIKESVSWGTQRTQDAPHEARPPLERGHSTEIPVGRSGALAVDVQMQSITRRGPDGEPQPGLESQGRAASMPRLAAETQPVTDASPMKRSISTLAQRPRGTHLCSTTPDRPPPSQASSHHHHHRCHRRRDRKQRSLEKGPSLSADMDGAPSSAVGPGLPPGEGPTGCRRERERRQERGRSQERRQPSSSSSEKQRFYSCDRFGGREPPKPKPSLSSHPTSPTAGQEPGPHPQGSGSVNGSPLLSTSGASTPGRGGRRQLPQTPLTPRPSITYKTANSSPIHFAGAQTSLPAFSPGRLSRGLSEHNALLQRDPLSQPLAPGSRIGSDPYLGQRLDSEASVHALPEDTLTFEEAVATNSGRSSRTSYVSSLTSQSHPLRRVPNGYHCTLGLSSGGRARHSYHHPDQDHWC
# T6 sequence (Q02410 whole entry): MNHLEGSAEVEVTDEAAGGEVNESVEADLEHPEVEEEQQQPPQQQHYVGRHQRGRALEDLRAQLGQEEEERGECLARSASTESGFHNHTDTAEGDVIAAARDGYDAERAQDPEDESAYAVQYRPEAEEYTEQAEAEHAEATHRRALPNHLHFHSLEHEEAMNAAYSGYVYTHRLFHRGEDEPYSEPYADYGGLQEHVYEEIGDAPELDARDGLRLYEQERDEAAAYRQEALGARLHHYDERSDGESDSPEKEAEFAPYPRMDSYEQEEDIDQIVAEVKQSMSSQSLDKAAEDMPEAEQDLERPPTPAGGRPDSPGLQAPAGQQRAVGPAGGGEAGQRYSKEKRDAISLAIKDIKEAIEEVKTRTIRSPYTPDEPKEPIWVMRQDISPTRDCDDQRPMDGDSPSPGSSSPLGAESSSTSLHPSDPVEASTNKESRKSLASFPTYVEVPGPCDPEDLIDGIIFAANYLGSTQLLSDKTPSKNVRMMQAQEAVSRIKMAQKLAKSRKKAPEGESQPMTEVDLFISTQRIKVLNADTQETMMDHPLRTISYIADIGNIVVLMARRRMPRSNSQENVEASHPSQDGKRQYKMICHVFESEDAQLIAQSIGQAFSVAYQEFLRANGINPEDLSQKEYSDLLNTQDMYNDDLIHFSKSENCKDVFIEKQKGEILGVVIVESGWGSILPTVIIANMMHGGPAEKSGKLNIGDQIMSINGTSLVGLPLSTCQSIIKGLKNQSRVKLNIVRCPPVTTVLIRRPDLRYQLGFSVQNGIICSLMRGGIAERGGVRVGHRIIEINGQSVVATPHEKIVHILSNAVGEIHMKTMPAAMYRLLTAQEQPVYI
# [14] = target: T6, Voltage-gated N-type calcium channel alpha-1B subunit/Amyloid beta A4 precursor protein-binding family A member 1; format: protein assay; remark: listed apart in the source
# [15] = growth suppression of PTEN-null colon cells, dose response, cell-based, HCT116 PTEN knockout (AID 1047); format: functional;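 also: HCT116 colon tumor cells with PTEN knocked out; cells exposed to compound for 60 hours before readout; potency for loss of cell viability measured by luminescence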
# [16] = growth suppression of beta-catenin-knockout colon cells, dose response, cell-based, HCT116, human colon tumor (AID 1045); format: functional;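 also: HCT116 colon tumor cells with beta catenin knocked out; cells exposed to compound for 60 hours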
# [17] = target: Glucose-6-phosphate 1-dehydrogenase (Homo sapiens, UniProt P11413); experiment: human G6PD enzyme inhibitors, dose response, selectivity assay for P. falciparum G6PD inhibitor project, biochemical, fluorescence (AID 504792); format: functional
# [18] = target: DNA dC->dU-editing enzyme APOBEC-3G (Homo sapiens, UniProt Q9HC16); experiment: Dose Response confirmation of small molecule APOBEC3G DNA Deaminase Inhibitors via a fluorescence-based single-stranded DNA deaminase assay. [Related pubchem assays (depositor defined):AID493012, AID493028]; format: functional
# [19] = Shn3 3'UTR reporter inhibitors, dose response, cell-based, Clone20 osteoblasts, firefly luciferase, cherry-picked (AID 624132); format: functional;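 also: firefly luciferase luminescence from reporter carrying the Shn3 3'UTR in osteoblasts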
# [20] = HepG2 cell cytotoxicity, dose response, cytotoxicity control for Shn3 inhibitor project, CellTiter-Glo, cherry-picked (AID 624134); format: functional, cell-based
# [21] = control 3'UTR Renilla luciferase suppression, dose response, counter-screen for Shn3 inhibitor project, cell-based, Clone20-Shn3RL, cherry-picked (AID 624133); format: functional
# [22] = target: Cytochrome P450 3A4 (Homo sapiens, UniProt P08684); conditions: Potency;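 also: confirmatory qHTS run detecting inhibitors and substrates of CYP3A4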
# [23] = P. falciparum 3D7-ScDHODH growth inhibitors, dose response, SYBR Green, dry powder samples (AID 1159570); format: functional, cell-based;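 also: parasite growth measured after 72 hours of compound exposure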
# [24] = P. falciparum Dd2 growth inhibitors, dose response, SYBR Green, cherry-picked samples (AID 1159567); format: functional, cell-based
# [25] = P. falciparum Dd2 growth inhibitors, dose response, SYBR Green, dry powder samples (AID 1159566); format: functional, cell-based;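 also: potency for growth inhibition with lower SYBR green DNA signal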
# [26] = P. falciparum ATP4 D1247Y mutant growth inhibitors, dose response, NITD609-resistant line, SYBR Green, dry powder (AID 1159571); format: functional, cell-based;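 also: parasites synchronized at ring stage by sorbitol before testing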
# Cytochrome P450 2C9, sequence (P11712 whole entry): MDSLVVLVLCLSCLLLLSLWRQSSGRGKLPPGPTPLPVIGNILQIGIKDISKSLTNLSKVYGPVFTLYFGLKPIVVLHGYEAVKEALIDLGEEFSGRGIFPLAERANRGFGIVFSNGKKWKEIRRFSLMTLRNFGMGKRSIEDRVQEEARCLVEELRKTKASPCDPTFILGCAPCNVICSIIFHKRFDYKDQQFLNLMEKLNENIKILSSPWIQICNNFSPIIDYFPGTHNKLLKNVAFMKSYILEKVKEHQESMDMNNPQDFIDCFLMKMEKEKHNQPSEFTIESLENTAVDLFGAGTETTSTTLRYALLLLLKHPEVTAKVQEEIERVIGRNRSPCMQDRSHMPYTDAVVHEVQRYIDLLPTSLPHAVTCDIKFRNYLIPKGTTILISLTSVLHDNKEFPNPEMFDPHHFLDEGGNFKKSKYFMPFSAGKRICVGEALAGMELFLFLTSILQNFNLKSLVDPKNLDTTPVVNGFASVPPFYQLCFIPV
# Glyceraldehyde-3-phosphate dehydrogenase, sequence (P04406 whole entry): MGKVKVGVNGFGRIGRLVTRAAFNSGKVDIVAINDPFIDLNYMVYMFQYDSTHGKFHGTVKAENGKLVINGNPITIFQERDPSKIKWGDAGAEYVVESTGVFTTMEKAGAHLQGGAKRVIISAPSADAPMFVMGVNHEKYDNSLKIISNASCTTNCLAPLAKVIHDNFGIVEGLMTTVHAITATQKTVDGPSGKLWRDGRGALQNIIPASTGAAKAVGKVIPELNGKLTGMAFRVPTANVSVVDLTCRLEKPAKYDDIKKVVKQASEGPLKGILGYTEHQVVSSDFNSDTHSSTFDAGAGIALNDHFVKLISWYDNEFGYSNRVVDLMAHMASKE
compound,measurement,setting,value
COc1ccc(/C=C/C2=CC3(C)CC2(C)C(c2ccc(OC)cc2)CC3=O)cc1 (centres undefined),AC50,[1],7.94 µM (inconclusive)
O=C1C2CCCCC2C(=O)N1c1nc(CCc2ccccc2)n[nH]1 (centres undefined),IC50,[2],> 100 µM (not active)
same,IC50,[3],> 100 µM (inactive)
CCCCn1c(N)c(C(=S)NC(=O)CC(C)(C)C)c(=O)n(C)c1=O,IC50,[4],> 66.6 µM (inactive)
same,IC50,[5],> 66 µM (inactive)
same,IC50,[6],> 66 µM (inactive)
O=S(=O)(c1ccccc1F)N1CCC(c2nc(O)c3nnn(Cc4ccc5c(c4)OCCO5)c3n2)CC1,CC50,[7],> 50 µM (active)
same,IC50,[8],45.3 µM (active)
Cc1ccccc1Nc1nc(N)nc(CSc2nc3ccccc3c(=O)n2C)n1,IC50,[9],> 50 µM (not active)
CC(C)CC(C(=O)NC(C)(C)C)N(Cc1ccccc1Cl)C(=O)c1snc(C(N)=O)c1N (centres undefined),IC50,[10],> 20 µM (inactive)
same,IC50,[11],14.5 µM (active)
same,IC50,[12],12.5 µM (active)
CCOC(=O)N1CCN(C(=O)CCN2C(=O)/C(=C\c3cccc(OC)c3)SC2=S)CC1,IC50,[13],28.4 µM (active)
same,IC50,[14],> 50 µM (inactive)
CSc1ccc(S(=O)(=O)Nc2cccc(F)c2)cc1,IC50,[9],23.7 µM (active)
NNC(=O)c1cc(-c2ccc(F)cc2F)[nH]n1,IC50,[2],> 10 µM (inconclusive)
same,IC50,[3],0.12 µM (active)
N#C/C(=C\c1ccc(OCCN2CCOCC2)cc1)C(=O)Nc1ccc(S(N)(=O)=O)cc1,IC50,[13],7.74 µM (active)
same,IC50,[14],> 50 µM (inactive)
Cc1ccc(-c2nc3cccnc3s2)cc1NS(=O)(=O)c1cccs1,CC50,[7],20.4 µM (active)
same,IC50,[8],8.63 µM (active)
CCOC(=O)C1CCCN(C(=O)Cn2sc3nc(C)cc(C)c3c2=O)C1 (centres undefined),IC50,[13],12.6 µM (active)
same,IC50,[14],> 50 µM (inactive)
same,EC50,[15],25.9 µM (active)
same,EC50,[16],21.6 µM (active)
same,IC50,[17],47.1 µM (inactive)
same,IC50,[18],6.17 µM (active)
same,AC50,[19],12.5 µM (active)
same,AC50,[20],> 70 µM (inactive)
same,AC50,[21],7.5 µM (active)
COC(=O)NC(/C(C(=O)OC)=C(\C)NCc1ccccc1)c1ccc2ccccc2c1 (centres undefined),AC50,[22],3.98 µM (inconclusive)
same,AC50,[1],1 µM (inconclusive)
COc1cc(-c2nnc(SCc3c(F)cccc3Cl)o2)cc(OC)c1OC,CC50,[7],29.9 µM (active)
same,IC50,[8],9.1 µM (active)
Cc1c(CC(=O)N2CCN(C(=O)C3COc4ccccc4O3)CC2)c(=O)oc2cc(O)cc(O)c12 (centres undefined),IC50,[8],3.62 µM (active)
COc1ccccc1NS(=O)(=O)c1ccc(OC)c2ncccc12,IC50,[2],> 100 µM (not active)
same,IC50,[3],> 100 µM (inactive)
CCCOc1ccc(CN(CCC#N)C(=S)NC(=O)c2ccccc2)cc1,IC50,[4],> 66.6 µM (inactive)
CCOC(=O)c1cc(-c2cccc(C(F)(F)F)c2)n[nH]1,IC50,[2],> 100 µM (not active)
same,IC50,[3],> 100 µM (inactive)
NCCC[C@@H](CC(=O)N[C@@H]1CCNC[C@H]1C(=O)N[C@H](CC(=O)N[C@@H](CCC(=O)O)CC(=O)O)Cc1c[nH]c2ccccc12)NC(=O)C[C@H](CO)NC(=O)[C@@H]1CNCC[C@H]1N,AC50,[1],39.8 µM (inconclusive)
CCOc1cc(C)ccc1S(=O)(=O)Nc1cccnc1,IC50,[2],> 100 µM (not active)
same,IC50,[3],> 100 µM (inactive)
COc1ccc(NS(=O)(=O)c2cc(C(=O)N3CCC3)ccc2C)cc1,IC50,[10],> 20 µM (inactive)
same,IC50,[11],19.8 µM (active)
same,IC50,[12],> 20 µM (inactive)
C#CCOCCOCCOCCNc1nc(N2CCN(C(=O)C([C@@H](C)O)n3cc([C@@H](N)CCCCN)nn3)CC2)nc(N2CCN(C(=O)[C@H](CCCN=C(N)N)n3cc(C(N)[C@@H](C)CC)nn3)CC2)n1 (some centres undefined),IC50,[10],> 20 µM (inactive)
same,IC50,[11],12.1 µM (active)
same,IC50,[12],7.99 µM (active)
COc1ccc(S(=O)(=O)Nc2cccc3c2O[C@H](CN(C)Cc2ccc(-c4ccccc4)cc2)[C@@H](C)CN([C@H](C)CO)C3=O)cc1,AC50,[23],1.02 µM (active)
same,AC50,[24],955 nM (active)
same,AC50,[25],587 nM (active)
same,AC50,[26],696 nM (active)
O=[N+]([O-])c1ccc(N/N=C/c2cccc(O)c2O)cc1,IC50,[4],> 66.6 µM (inactive)
C[C@H](CO)N1C[C@H](C)[C@@H](CN(C)S(=O)(=O)c2ccc(C(F)(F)F)cc2)OCc2ccccc2-c2c(n(C)c3ccccc23)C1=O,AC50,[23],0.777 µM (active)
same,AC50,[24],950 nM (active)
same,AC50,[25],599 nM (active)
same,AC50,[26],885 nM (active)
CCCC(=O)N1CC2(C1)CN(S(=O)(=O)c1ccc(C)cc1)[C@@H](CO)c1[nH]c3cc(OC)ccc3c12,AC50,[23],3.18 µM (active)
same,AC50,[24],2140 nM (active)
same,AC50,[25],1650 nM (active)
same,AC50,[26],1670 nM (active)
O=c1cc(-c2ccccc2O)oc2ccc3ccccc3c12,AC50,[22],31.6 µM (inconclusive)
same,AC50,[1],31.6 µM (inconclusive)
